The record followed here is patent publication US9957271B2, “Substituted bicyclic aza-heterocycles and analogues as sirtuin modulators” (GlaxoSmithKline, LLC, priority 2012, dated 2018).

The target in the assay is T1, SIRT1 (Homo sapiens, UniProt Q96EB6).
T1 sequence (Q96EB6 1-747): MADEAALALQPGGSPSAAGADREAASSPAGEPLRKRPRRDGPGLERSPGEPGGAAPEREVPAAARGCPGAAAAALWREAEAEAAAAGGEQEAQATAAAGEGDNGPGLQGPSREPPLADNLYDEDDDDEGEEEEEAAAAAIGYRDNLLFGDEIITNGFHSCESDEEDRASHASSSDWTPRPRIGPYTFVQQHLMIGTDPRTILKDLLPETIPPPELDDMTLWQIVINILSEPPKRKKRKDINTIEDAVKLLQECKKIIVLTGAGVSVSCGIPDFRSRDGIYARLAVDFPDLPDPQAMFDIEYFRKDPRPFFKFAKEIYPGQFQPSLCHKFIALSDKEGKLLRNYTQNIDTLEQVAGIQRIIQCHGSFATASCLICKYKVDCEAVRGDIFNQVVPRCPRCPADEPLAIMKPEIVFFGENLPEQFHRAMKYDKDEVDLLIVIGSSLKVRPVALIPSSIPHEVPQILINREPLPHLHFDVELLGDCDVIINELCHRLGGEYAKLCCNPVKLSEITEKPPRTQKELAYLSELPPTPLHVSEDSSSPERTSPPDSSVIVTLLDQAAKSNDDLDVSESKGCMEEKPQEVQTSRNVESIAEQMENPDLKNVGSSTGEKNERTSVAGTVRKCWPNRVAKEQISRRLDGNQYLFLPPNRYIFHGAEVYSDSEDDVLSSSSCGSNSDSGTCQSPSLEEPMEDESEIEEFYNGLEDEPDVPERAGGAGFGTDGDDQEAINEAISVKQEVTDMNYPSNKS
As to the kind of experiment: TAMRA based mass spectrometry assay of SIRT1 activity. Type of assay: biochemical. As to conditions: for Emax: read-out: TAMRA % Fold Act. The source says:
Mass spectrometry based assays were used to identify modulators of SIRT1 activity. The TAMRA based assay utilized a peptide having 20 amino acid residues as follows: Ac-EE-K(biotin)-[…](Ac)NleSTEG-K(5TMR)-EE-NH2 (SEQ ID NO: 1), wherein K(Ac) is an acetylated lysine residue and Nle is a norleucine. The peptide was labeled with the fluorophore 5TMR (excitation 540 nm/emission 580 nm) at the C-terminus. The sequence of the peptide substrate was based on p53 with several modifications. In addition, the methionine residue naturally present in the sequence was replaced with the norleucine because the methionine may be susceptible to oxidation during synthesis and purification. The Trp based assay utilized a peptide having an amino acid residues as follows: Ac-R-H-K-K(Ac)-W-NH2 (SEQ ID NO: 2).
The TAMRA based mass spectrometry assay was conducted as follows: 0.5 μM peptide substrate and 120 μM βNAD^+ was incubated with 10 nM SIRT1 for 25 minutes at 25° C. in a reaction buffer (50 mM Tris-acetate pH 8, 137 mM NaCl, 2.7 mM KCl, 1 mM MgCl2, 5 mM DTT, 0.05% BSA). The SIRT1 protein was obtained by cloning the SirT1 gene into a T7-promoter containing vector, which was then transformed and expressed in BL21(DE3) bacterial cells. Test compound was added at varying concentrations to this reaction mixture and the resulting reactions were monitored. After the 25 minute incubation with SIRT1, 10 μL of 10% formic acid was added to stop the reaction. The resulting reactions were sealed and frozen for later mass spec analysis. Determination of the amount of deacetylated substrate peptide formed (or, alternatively, the amount of O-acetyl-ADP-ribose (OAADPR) generated) by the sirtuin-mediated NAD-dependent deacetylation reaction allowed for the precise measurement of relative SIRT1 activity in the presence of varying concentrations of the test compound versus control reactions lacking the test compound.
A control for inhibition of sirtuin activity was conducted by adding 1 μL of 500 mM nicotinamide as a negative control at the start of the reaction (e.g., permits determination of maximum sirtuin inhibition). A control for activation of sirtuin activity was conducted using 10 nM of sirtuin protein, with 1 μL of DMSO in place of compound, to determine the amount of deacetylation of the substrate at a given time point within the linear range of the assay. This time point was the same as that used for test compounds and, within the linear range, the endpoint represents a change in velocity.
For the above assay, SIRT1 protein was expressed and purified as follows. The SirT1 gene was cloned into a T7-promoter containing vector and transformed into BL21(DE3). The protein was expressed by induction with 1 mM IPTG as an N-terminal His-tag fusion protein at 18° C. overnight and harvested at 30,000×g. Cells were lysed with lysozyme in lysis buffer (50 mM Tris-HCl, 2 mM Tris[2-carboxyethyl]phosphine (TCEP), 10 μM ZnCl2, 200 mM NaCl) and further treated with sonication for […] for complete lysis. The protein was purified over a Ni-NTA column (Amersham) and fractions containing pure protein were pooled, concentrated and run over a sizing column (Sephadex S200 26/60 global). The peak containing soluble protein was collected and run on an Ion-exchange column (MonoQ). Gradient elution (200 mM-500 mM NaCl) yielded pure protein. This protein was concentrated and dialyzed against dialysis buffer (20 mM Tris-HCl, 2 mM TCEP) overnight. The protein was aliquoted and frozen at −80° C. until further use.

The mark [1] stands for this setting: TAMRA assay, concentration giving 150% activation of SIRT1.
Setting [2] is: TAMRA assay, percent maximum fold activation.
[3] abbreviates: TAMRA peptide substrate, concentration giving 150% activation of SIRT1.
[4] abbreviates: TAMRA peptide substrate, percent maximum fold activation.
Setting [5] is: concentration of test compound giving 150% activation of SIRT1, TAMRA peptide substrate.
The mark [6] stands for this setting: percent maximum fold activation of SIRT1, TAMRA peptide substrate.

Read-outs that look alike come from different tables or passages of the source.

Take `Cc1cnc(NC(=O)c2cnn3ccc(-c4ccccc4OC(F)(F)F)nc23)cn1` [Compound 623]: the “TAMRA EC1.5 (μM)” value under setting [1] is “A (EC1.5<1 μM)”. The Emax under setting [2] is no less than 350%.
On to `Cc1nc2ccc(-c3ccccc3C(F)(F)F)nn2c1C(=O)Nc1ccc(F)cn1` [Compound 465], for which, under setting [3], the “TAMRA EC1.5” value is listed as “A (EC1.5<1 μM)”. For the same compound, under setting [4], the Emax was no less than 350%.
For `O=C(Nc1cccc(N2CCCC2)n1)c1nnc2ccc(-c3ccccc3C(F)(F)F)nn12` [Compound 66], the “TAMRA EC1.5 (μM)” value under setting [5] was “A (EC1.5<1 μM)”. Further, the Emax under setting [6] was no less than 350%.
Consider `Cc1nc2ccc(-c3ccccc3Cl)nn2c1C(=O)Nc1cccnn1` [Compound 715], for which the “TAMRA EC1.5 (μM)” value under setting [1] is “B (EC1.5 1-25 μM)”. The Emax under setting [2] was no less than 350%.
For `CCOc1nccc(NC(=O)c2cnn3ccc(-c4ccccc4C(F)(F)F)nc23)n1` [Compound 807] the same measures were “A (EC1.5<1 μM)” and no less than 350%.
With `O=C(Nc1cnc2ccc(-c3ccccc3OC(F)(F)F)nn12)c1cnccn1` [Compound 313], the “TAMRA EC1.5 (μM)” value under setting [1] was “A (EC1.5<1 μM)”. Further, under setting [2], the Emax was no less than 350%.
Taken in the same sequence, the figures for `O=C(Nc1ccncn1)c1cnn2ccc(-c3ccccc3C(F)(F)F)nc12` [Compound 268] were “A (EC1.5<1 μM)” and no less than 350%.
For `Cc1ccc(NC(=O)c2c(C)nn3ccc(-c4ccccc4C(F)(F)F)nc23)nc1` [Compound 684] the same measures were “A (EC1.5<1 μM)” and no less than 350%.
For `CCOc1cc(NC(=O)c2cnn3ccc(-c4ccccc4C(F)(F)F)nc23)ccn1` [Compound 643] the same measures were “A (EC1.5<1 μM)” and no less than 350%.
Turning to `Cc1nccc(NC(=O)c2c(C)nc3c(C)cc(-c4ccccc4C(F)(F)F)nn23)n1` [Compound 729], the “TAMRA EC1.5 (μM)” value under setting [1] is “A (EC1.5<1 μM)”. Also, under setting [2], the Emax was no less than 350%.
As to `O=C(Nc1cccnc1)c1cnc2ccc(-c3ccccc3F)nn12` [Compound 138], under setting [5], the “TAMRA EC1.5 (μM)” value is “B (EC1.5 1-25 μM)”. Besides, under setting [6], the Emax is less than 350%.
Taken in the same sequence, the figures for `Cc1cnc(NC(=O)c2cnc3ccc(-c4ccccc4C(F)(F)F)nn23)s1` [Compound 109] were “A (EC1.5<1 μM)” and no less than 350%.
For `Cc1cccnc1C(=O)Nc1cnc2ccc(-c3ccccc3C(F)(F)F)nn12` [Compound 232], under setting [1], the “TAMRA EC1.5 (μM)” value is listed as “A (EC1.5<1 μM)”. Moreover, under setting [2], the Emax was no less than 350%.
Regarding `Cc1cccc(C(=O)Nc2cnn3ccc(-c4ccccc4C(F)(F)F)nc23)n1` [Compound 522], under setting [3], the “TAMRA EC1.5” value is “A (EC1.5<1 μM)”. Moreover, the Emax under setting [4] was no less than 350%.
As for `O=C(Nc1nccs1)c1cnc2ccc(-c3ccccc3OC(F)(F)F)nn12` [Compound 13], the “TAMRA EC1.5 (μM)” value under setting [5] is listed as “A (EC1.5<1 μM)”. Moreover, under setting [6], the Emax was no less than 350%.
With `O=C(Nc1cnn2ccc(-c3ccccc3C(F)(F)F)nc12)c1ncccc1F` [Compound 747], the “TAMRA EC1.5 (μM)” value under setting [1] is “A (EC1.5<1 μM)”. Also, the Emax under setting [2] was no less than 350%.
Regarding `O=C(Nc1ccccn1)c1cnc2ccc(-c3ccccc3OCC(O)CO)nn12` (stereo not shown) [Compound 368], the “TAMRA EC1.5 (μM)” value under setting [1] is “B (EC1.5 1-25 μM)”. Besides, the Emax under setting [2] is no less than 350%.
In the case of `Cc1ccnc(NC(=O)c2cnn3ccc(-c4ccccc4C(F)(F)F)nc23)c1` [Compound 501], the “TAMRA EC1.5” value under setting [3] is “A (EC1.5<1 μM)”. Also, the Emax under setting [4] was no less than 350%.
Turning to `COc1cc(NC(=O)c2cnc3ccc(-c4ccccc4C(F)(F)F)nn23)nc(OC)n1` [Compound 196], the “TAMRA EC1.5 (μM)” value under setting [5] is “A (EC1.5<1 μM)”. In addition, under setting [6], the Emax is no less than 350%.
Consider `Cc1cnc(NC(=O)c2cnn3ccc(-c4ccccc4C(F)(F)F)nc23)cn1` [Compound 723, N-(5-methylpyrazin-2-yl)-5-(2-(trifluoromethyl)phenyl)pyrazolo[1,5-a]pyrimidine-3-carboxamide], for which the “TAMRA EC1.5 (μM)” value under setting [1] is “A (EC1.5<1 μM)”. For the same compound, the Emax under setting [2] is no less than 350%.
In the case of `Cc1noc(C)c1-c1ccc2ncc(C(=O)Nc3ccnc(N4CCC4)c3)n2n1` [Compound 55], under setting [5], the “TAMRA EC1.5 (μM)” value is recorded as “C (EC1.5>25 μM)”. Also, the Emax under setting [6] was less than 350%.
With `O=C(Nc1ccccn1)c1c(O)nc2ccc(-c3ccccc3C(F)(F)F)nn12` [Compound 324], the “TAMRA EC1.5 (μM)” value under setting [1] is given as “B (EC1.5 1-25 μM)”. For the same compound, the Emax under setting [2] was less than 350%.
Taken in the same sequence, the figures for `O=C(Nc1ncccc1N1CCOCC1)c1cnc2ccc(-c3ccccc3C(F)(F)F)nn12` [Compound 211] were “C (EC1.5>25 μM)” and less than 350%.
Take `O=C(Nc1ccncc1)c1cnn2ccc(-c3ccccc3OC(F)(F)F)nc12` [Compound 531]: the “TAMRA EC1.5” value under setting [3] is reported as “A (EC1.5<1 μM)”. Further, under setting [4], the Emax was no less than 350%.
For the compound `Cc1cc(-c2ccccc2C(F)(F)F)nn2c(C(=O)Nc3ccnc(N4CC5(CCS5(=O)=O)C4)n3)cnc12` [Compound 691], the “TAMRA EC1.5 (μM)” value under setting [1] is recorded as “A (EC1.5<1 μM)”. In addition, under setting [2], the Emax is no less than 350%.
`O=C(Nc1ccncc1)c1cnc2ccc(-c3c(F)cccc3F)nn12` [Compound 166]: the “TAMRA EC1.5 (μM)” value under setting [5] is recorded as “C (EC1.5>25 μM)”. Also, under setting [6], the Emax was less than 350%.
In the case of `Cc1cccc(NC(=O)c2c(O)nc3ccc(-c4ccccc4C(F)(F)F)nn23)n1` [Compound 343], the “TAMRA EC1.5 (μM)” value under setting [1] was “C (EC1.5>25 μM)”. Under setting [2], the Emax is less than 350%.
Taken in the same sequence, the figures for `Cc1nc2c(OC[C@H]3COC(C)(C)O3)cc(-c3ccccc3C(F)(F)F)nn2c1C(=O)Nc1cccnn1` [Compound 745] were “A (EC1.5<1 μM)” and no less than 350%.
Take `Cc1ncccc1-c1ccc2ncc(C(=O)Nc3ccnc(N4CCC4)c3)n2n1` [Compound 63]: the “TAMRA EC1.5 (μM)” value under setting [5] is listed as “C (EC1.5>25 μM)”. Moreover, the Emax under setting [6] was less than 350%.
Take `Cc1cncc(NC(=O)c2c(C)nn3ccc(-c4ccccc4C(F)(F)F)nc23)c1` [Compound 638]: the “TAMRA EC1.5 (μM)” value under setting [1] is “A (EC1.5<1 μM)”. Under setting [2], the Emax is no less than 350%.
For `Cc1cc2ncc(C(=O)Nc3ccnc(N4CCC4)c3)n2nc1-c1ccccc1C(F)(F)F` [Compound 225] the same measures were “A (EC1.5<1 μM)” and no less than 350%.
`Cc1cc(-c2ccccc2C(F)(F)F)nn2c(C(=O)Nc3ccncn3)cnc12` [Compound 515]: under setting [3], the “TAMRA EC1.5” value was “A (EC1.5<1 μM)”. Also, the Emax under setting [4] was no less than 350%.
